The values below come from patent US8389509B2, “Substituted pyrazole compounds” (Bristol-Myers Squibb Company, priority 2009, dated 2013).

The subject of assay [1] is circulating lymphocytes. Nature of the assay: Blood Lymphocyte Reduction Assay (BLR) in mice. It counts as in vivo, BALB/c mice. The conditions noted are these: oral. On the procedure: (§1) Blood Lymphocyte Reduction Assay (BLR) in Rodents
(§2) Lewis rats or BALB/c mice were dosed orally with test article (as a solution or suspension in the vehicle) or vehicle alone (polyethylene glycol 300, “PEG300”). Blood was drawn at 4 hr and 24 h by retro-orbital bleeding. Blood lymphocyte counts were determined on an ADVIA 120 Hematology Analyzer (Siemens Healthcare Diagnostics). The results were measured as a reduction in the percentage of circulating lymphocytes as compared to the vehicle treated group at the 4 hr and 24 hr measurement. The results represent the average results of all animals within each treatment group (n=3-4).
(§3) Compounds of the present invention were tested in the Blood Lymphocyte Reduction assay (BLR) described hereinabove and the results are shown in Table D for rats and Table E for mice.

In a further assay the test system is Lewis rats. In words: Rat Adjuvant Induced Arthritis Assay (AA). It counts as in vivo. The note with it: for Paw Swelling (mL) on Day 21, Mean: vehicle mean 1.58. On the procedure: Rat Adjuvant Induced Arthritis Assay (AA)
Male Lewis rats (150-175 g; Harlan, n=8 treatment group) were immunized at the base of the tail with 100 μl of 10 mg/ml freshly ground Mycobacterium butyricum (Difco Laboratories) in incomplete Freund's adjuvant (sigma). Animals were dosed once daily with the test article (as a solution or suspension in the vehicle) or vehicle alone (polyethylene glycol 300, “PEG300”) starting from the day of immunization. The volumes of their hind paws were measured in a water displacement plethysmometer (Ugo Basile, Italy). The baseline paw measurements were taken before onset of the disease (between day 7 to day 10). The paw measurements were then taken three times a week until the end of the study on day 20 to 21. All procedures involving animals were reviewed and approved by the Institutional Animal Care Use Committee.
Compounds of the present invention were tested in the Rat Adjuvant Induced Arthritis assay described hereinabove and the results are shown in Table F and Table G.

Assay [2] has as its target T1, S1P1 (Homo sapiens, UniProt P21453).
T1 construct: expressed in transfected cells; host or cells: CHO cells
Nature of the assay: Method B: Receptor [35S] GTPγS SPA Binding Assay, S1P1. It counts as biochemical. The conditions noted are these: for EC50: Method B (SPA), S1P1 transfected CHO cell membranes; for GTPγS S1P3/S1P1 (Method B): ratio of S1P3 EC50 to S1P1 EC50, Method B. On the procedure: (§4) Method B: Receptor [^35S] GTPγS SPA Binding Assays
(§5) Membranes prepared from S1P1 or S1P3 transfected CHO cells (2 μg protein) were incubated in 96-well white plates (CORNING® 3693) with test compounds diluted in DMSO, in 50 μl of reaction mixture containing 7.5 μA WGA-PVT beads (20 mg/ml), and 5 μM GDP, 20 mM HEPES pH 7.4, 100 mM NaCl, 1 mM EDTA, 5 mM MgCl2, 10 μg/ml saponin, 0.1% BSA, and 1 μM leupeptin. The assay was initiated with the addition of […] of 0.2 nM [^35S]-GTPγS (1250 Ci/mmol; NEN) in assay buffer. After 90 min incubation at room temperature, spin the plate at 1000 rpm for 5 min. The bound radionuclides were measured at TOPCOUNT®, expressed as % response relative to S1P (1 μM) activation. Data was analyzed using the four parameter logistic equation in Excel. The four parameters in the equation, Y=A+((B−A)/(1+((EC50/X)^D))), are described as following: A is the Y value (agonist activity) at the bottom plateau; B is the Y value at the top plateau; EC50 is the X value (agonist concentration) when the response is halfway between bottom and top; D is Hill coefficient. Curves were not generated for compounds having Ymax values were below 50%.
(§6) Compounds of the present invention and Comparative Compound A were tested in the Receptor [^35S] GTPγS Binding Assays (Method A) and Receptor [^35S] In some instances, the value is an average of multiple experiments where N is the number of experiments conducted that provided satisfactory dose response curves. When more than one batch of an example was tested, the value presented is from a batch which allowed a comparison of GTPγS S1P1 and GTPγS S1P3 in which the most number of experiments were performed. Preferably, the same batch was examined in Method A and Method B. Data was not averaged across different batches of an example compound.

Assay [3] concerns circulating lymphocytes. In words: Blood Lymphocyte Reduction Assay (BLR) in rats. It counts as in vivo, Lewis rats. The conditions noted are these: oral. On the procedure: as §1, §2, §3
For assay [4], the target named is T2, S1P3 (Homo sapiens, UniProt Q99500). In words: Method B: Receptor [35S] GTPγS SPA Binding Assay, S1P3. It counts as biochemical. The arrangement: expressed in transfected cells; host or cells: CHO cells. The note with it: S1P3 transfected CHO cell membranes. On the procedure: as §4, §5, §6
T2 sequence (Q99500 whole entry): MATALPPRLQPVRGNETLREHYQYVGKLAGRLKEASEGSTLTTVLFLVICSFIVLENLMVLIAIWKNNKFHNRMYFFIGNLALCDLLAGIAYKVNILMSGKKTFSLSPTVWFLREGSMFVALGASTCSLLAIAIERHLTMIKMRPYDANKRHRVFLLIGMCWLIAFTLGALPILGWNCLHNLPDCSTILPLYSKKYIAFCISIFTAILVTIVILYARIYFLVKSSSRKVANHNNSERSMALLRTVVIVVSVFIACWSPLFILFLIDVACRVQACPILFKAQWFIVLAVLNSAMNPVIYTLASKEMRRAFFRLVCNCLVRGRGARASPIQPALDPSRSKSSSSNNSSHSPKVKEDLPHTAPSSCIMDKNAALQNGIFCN
Assay [5] deals with T1, S1P1. In words: S1P1 Binding Assay (33P-S1P competition, CHO membranes). The conditions noted are these: membranes of CHO cells expressing human S1P1, 33P-S1P ligand; read-out: S1P1 B IC50. As to the method: Membranes were prepared from CHO cells expressing human S1P1. Cells were dissociated in buffer containing 20 mM HEPES, pH 7.5, 50 mM NaCl, 2 mM EDTA and Protease Inhibitor cocktail (Roche), and disrupted on ice using the Polytron homogenizer. The homogenate was centrifuged at 20,000 rpm (48,000 g) and the supernatant was discarded. The membrane pellets were resuspended in buffer containing 50 mM HEPES, pH 7.5, 100 mM NaCl, 1 mM MgCl2, 2 mM EDTA and stored in aliquots at −80° C. after protein concentration determination.
Membranes (2 μg/well) and 0.03 nM final concentration of ^33P-S1P ligand (1 mCi/ml, American Radiolabeled Chemicals) were added to the compound plates. Binding was performed for 60 min at room temperature, terminated by collecting the membranes onto GF/B filter plates, and radioactivity was measured by TOPCOUNT®. The competition data of the test compounds over a range of concentrations was plotted as percentage inhibition of radioligand specific binding. The IC50 is defined as the concentration of competing ligand needed to reduce specific binding by 50%.
Compounds of the present invention and Comparative Compound A were tested in the S1P1 binding assay described hereinabove and the results rounded to two digits, shown in Table A were obtained. In some instances, the value is an average of multiple experiments where N is the number of experiments conducted that provided satisfactory dose response curves. When more than one batch of an example was tested, the value presented is from the batch which allowed a comparison of GTPγS S1P1 and GTPγS S1P3 in Method A (Data shown in Table B). Data was not averaged across different batches of an example compound.

For assay [6], the target named is T1, S1P1. Nature of the assay: Method A: Receptor [35S] GTPγS Binding Assay, S1P1. It counts as biochemical. The note with it: for EC50: Method A, S1P1/CHO cell membranes; for GTPγS S1P3/S1P1 (Method A): ratio of S1P3 EC50 to S1P1 EC50, Method A. As to the method:
(§7) Method A: Receptor [35S] GTPγS Binding Assays
(§8) Compounds were loaded in a 384 FALCON® v-bottom plate (0.5 μl/well in a 3-fold dilution). Membranes prepared from S1P1/CHO cells or EDG3-Gal5-bla HEK293T cells were added to the compound plate (40 μl/well, final protein 3 μg/well) with MULTIDROP®. [^35S]GTP (1250 Ci/mmol, Perkin Elmer) was diluted in assay buffer: 20 mM HEPES, pH7.5, 10 mM MgCl2, 150 mM NaCl, 1 mM EGTA, 1 mM DTT, 10 μM GDP, 0.1% fatty acid free BSA, and 10 μg/ml Saponin to 0.4 nM. 40 μl of the [^35S] GTP solution was added to the compound plate with a final concentration of 0.2 nM. The reaction was kept at room temperature for 45 min. At the end of incubation, all the mixtures in the compound plate were transferred to a 384 well FB filter plates via GPCR robot system. The filter plate was washed with water 4 times by using the modified manifold Embla plate washer and dried at 60° C. for 45 min. 30 μA of MicroScint 20 scintillation fluid was added to each well for counting at Packard TOPCOUNT®. EC50 is defined as the agonist concentration that corresponds to 50% of the Ymax (maximal response) obtained for each individual compound tested.
as §6
On the technique in general: Binding of GTPγS marks nucleotide exchange on a G protein.

Assay [7] concerns the target T2, S1P3. In words: Method A: Receptor [35S] GTPγS Binding Assay, S1P3. It counts as biochemical. The note with it: EDG3-Gal5-bla HEK293T cell membranes. The arrangement: expressed in transfected cells. On the procedure:
as §7, §8, §6

Where a name gives a salt, the structure may show the parent alone.

T1 sequence (P21453 whole entry): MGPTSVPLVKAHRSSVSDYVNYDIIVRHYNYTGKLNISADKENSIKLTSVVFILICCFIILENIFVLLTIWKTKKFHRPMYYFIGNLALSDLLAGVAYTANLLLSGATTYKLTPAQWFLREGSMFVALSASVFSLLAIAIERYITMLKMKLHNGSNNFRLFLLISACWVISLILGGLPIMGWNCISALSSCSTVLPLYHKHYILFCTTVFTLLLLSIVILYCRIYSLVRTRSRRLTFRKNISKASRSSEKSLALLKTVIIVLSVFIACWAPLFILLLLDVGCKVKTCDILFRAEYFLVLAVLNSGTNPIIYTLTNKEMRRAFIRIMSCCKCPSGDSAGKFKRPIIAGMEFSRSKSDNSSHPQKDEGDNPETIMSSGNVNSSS

As for `O=C(O)C1CN(Cc2ccc(-c3noc(-c4cnn(-c5ccccc5)c4C(F)(F)F)n3)cc2)C1` [Example 2, 1-(4-(5-(1-Phenyl-5-(trifluoromethyl)-1H-pyrazol-4-yl)-1,2,4-oxadiazol-3-yl)benzyl)azetidine-3-carboxylic acid], the “% reduction in lymphocytes at 4 hr.” value with circulating lymphocytes [1] (0.04 mg/kg) turned out to be 68%; in the assay on circulating lymphocytes [1] (0.2 mg/kg), 76%; in the assay on circulating lymphocytes [1] (1.0 mg/kg) it was 80%; in the assay on circulating lymphocytes [1] (3.0 mg/kg) it was 73%; in the assay on circulating lymphocytes [3] (0.04 mg/kg), 64%; in the assay on circulating lymphocytes [3] (0.2 mg/kg) it was 76%. Moreover, the “% reduction in lymphocytes at 4 hr.” value in the assay with circulating lymphocytes [3] (1.0 mg/kg) is listed as 76%. The “% reduction in lymphocytes at 24 hr.” value amounted to 5% in the assay on circulating lymphocytes [1] (0.04 mg/kg); 64% with circulating lymphocytes [1] (0.2 mg/kg); 82% in the assay with circulating lymphocytes [1] (1.0 mg/kg); 89% in the assay with circulating lymphocytes [1] (3.0 mg/kg); 8% with circulating lymphocytes [3] (0.04 mg/kg); 55% in the assay on circulating lymphocytes [3] (0.2 mg/kg). Also, the “% reduction in lymphocytes at 24 hr.” value with circulating lymphocytes [3] (1.0 mg/kg) stood at 79%. In addition, the “Paw Swelling (mL) on Day 21, Mean” value is reported as 02.12 mL with Lewis rats (0.2 mg/kg once daily), 0.91 mL in the assay with Lewis rats (1.0 mg/kg once daily), 0.19 mL in the assay with Lewis rats (3.0 mg/kg once daily) and 0.10 mL with Lewis rats (10.0 mg/kg once daily). Also, the “disease progression as measured by paw swelling” value with Lewis rats (Lewis rat, prophylactic oral dosing) was “inhibit disease progression”. The EC50 is 0.17 nM at S1P1 [2], 2100 nM at S1P3 [4] and 1.9 nM on S1P1 [6]. On S1P1 [2], the “GTPγS S1P3/S1P1 (Method B)” value was 12,000. For the same compound, the IC50 at S1P1 [5] was found to be 0.3 nM.
With `Cc1c(-c2nc(-c3ccc(CN4CC(C(=O)O)C4)cc3)no2)cnn1-c1ccccc1` [Example 5, 1-(4-(5-(5-methyl-1-phenyl-1H-pyrazol-4-yl)-1,2,4-oxadiazol-3-yl)benzyl)azetidine-3-carboxylic acid], the EC50 is 17 nM at S1P1 [2], 13000 nM on S1P3 [7] and 260 nM on S1P1 [6]. Besides, the IC50 at S1P1 [5] is 30 nM. Also, at S1P1 [6], the “GTPγS S1P3/S1P1 (Method A)” value was determined as 50.
Turning to `CCCc1c(-c2nc(-c3ccc(CN4CC(C(=O)O)C4)cc3)no2)cnn1-c1ccccn1` [Example 6, 1-(4-(5-(5-propyl-1-(pyridin-2-yl)-1H-pyrazol-4-yl)-1,2,4-oxadiazol-3-yl)benzyl)azetidine-3-carboxylic acid], the concentration giving a half-maximal response (EC50) at S1P3 [4] was 1300 nM; on S1P3 [7], 2900 nM; at S1P1 [6], 4.2 nM. Moreover, the IC50 on S1P1 [5] was found to be 0.12 nM. For the same compound, on S1P1 [6], the “GTPγS S1P3/S1P1 (Method A)” value was 690.
`O=C(O)C1CN(Cc2ccc(-c3noc(-c4cnn(-c5ccccc5)c4-c4cccnc4)n3)cc2)C1` [Example 15, 1-(4-(5-(1-Phenyl-5-(pyridin-3-yl)-1H-pyrazol-4-yl)-1,2,4-oxadiazol-3-yl)benzyl)azetidine-3-carboxylic acid, 2,2,2-trifluoroacetic acid salt]: the EC50 on S1P1 [2] was 2.2 nM; at S1P3 [4], 4100 nM; on S1P3 [7], 3600 nM; on S1P1 [6] it was 52 nM. Moreover, the “GTPγS S1P3/S1P1 (Method B)” value on S1P1 [2] was 1,900. Besides, the 50% inhibitory concentration (IC50) at S1P1 [5] stood at 5.4 nM. The “GTPγS S1P3/S1P1 (Method A)” value on S1P1 [6] turned out to be 69.

Usually EC50 stands for the concentration that produces a half-maximal response. Broadly, the IC50 is the concentration at which inhibition is half-maximal.
